Test results: PubChem BioAssay (NCI)
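Tested at 5 concentrations; 48 h exposure; 96-well plates; endpoints linearly interpolated, else capped at highest concentration. Definition used: TGI = concentration required for complete inhibition of growth.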

Legend:
Assay in all cases: DTP human tumour cell line panel, 48 h
[1] = system: KM12 colon
[2] = system: A549 NSCLC
[3] = system: SN12C renal
[4] = system: NCI-H522 lung
[5] = system: SF-268 CNS
[6] = system: U251 CNS
[7] = system: A498 renal
[8] = system: COLO 205 colon
[9] = system: HOP-62 NSCLC
[10] = system: NCI-H460 lung
[11] = system: UACC-62 melanoma
[12] = system: CAKI-1 renal
[13] = system: IGROV1 ovarian
[14] = system: CCRF-CEM leukemia
[15] = system: MALME-3M melanoma
[16] = system: DMS 273 small cell lung
[17] = system: DMS 114 small cell lung
[18] = system: RXF 393 renal
[19] = system: XF 498 CNS
[20] = system: SF-295 CNS
[21] = system: OVCAR-3 ovarian
[22] = system: HCT-116 colon
[23] = system: HCT-15 colon
[24] = system: TK-10 renal
[25] = system: SK-MEL-5 melanoma
[26] = system: MOLT-4 leukemia
[27] = system: M14 melanoma
[28] = system: LXFL 529 NSCLC
[29] = system: UACC-257 melanoma
[30] = system: LOX IMVI melanoma
[31] = system: SNB-19 CNS
[32] = system: SF-539 CNS
[33] = system: RPMI-8226 leukemia
[34] = system: DLD-1 colon
[35] = system: OVCAR-8 ovarian
[36] = system: ACHN renal
[37] = system: SK-OV-3 ovarian
[38] = system: HCC-2998 colon
[39] = system: OVCAR-4 ovarian
[40] = system: OVCAR-5 ovarian
[41] = system: SNB-75 CNS
[42] = system: KM20L2 colon
[43] = system: K-562 leukemia
[44] = system: HOP-18 NSCLC
[45] = system: SNB-78 CNS
[46] = system: HT29 colon
[47] = system: EKVX NSCLC
[48] = system: NCI-H23 lung
[49] = system: NCI-H226 lung
[50] = system: 786-0 renal
[51] = system: UO-31 renal
[52] = system: HL-60(TB) leukemia
[53] = system: SK-MEL-2 melanoma
[54] = system: SW-620 colon
[55] = system: M19-MEL melanoma
[56] = system: SR leukemia
[57] = system: SK-MEL-28 melanoma
[58] = system: HOP-92 NSCLC
[59] = system: RXF-631 renal

## Cc1ccc(-n2c3nc(=O)n(C)c(=O)c-3nc3ccccc32)cc1
[1]
  TGI: > 100 µM
[2]
  TGI: 30.2 µM
[3]
  TGI: 34 µM
[4]
  TGI: 32.6 µM
[5]
  TGI: > 100 µM
[6]
  TGI: 39.8 µM
[7]
  TGI: > 100 µM
[8]
  TGI: 14.8 µM
[9]
  TGI: > 100 µM
[10]
  TGI: 17.3 µM
[11]
  TGI: 5.52 µM
[12]
  TGI: 70.7 µM
[13]
  TGI: 92.1 µM
[14]
  TGI: 49.4 µM
[15]
  TGI: 27.2 µM
[16]
  TGI: 20.1 µM
[17]
  TGI: 27.6 µM
[18]
  TGI: > 100 µM
[19]
  TGI: 55.9 µM
[20]
  TGI: 46.5 µM
[21]
  TGI: 17.6 µM
[22]
  TGI: 61.3 µM
[23]
  TGI: 23.7 µM
[24]
  TGI: > 100 µM
[25]
  TGI: 26.2 µM
[26]
  TGI: 41.2 µM
[27]
  TGI: 32.7 µM
[28]
  TGI: > 100 µM
[29]
  TGI: 26.9 µM
[30]
  TGI: 43.7 µM
[31]
  TGI: 33.5 µM
[32]
  TGI: > 100 µM
[33]
  TGI: 54.6 µM
[34]
  TGI: > 100 µM
[35]
  TGI: 51.8 µM
[36]
  TGI: 49.2 µM
[37]
  TGI: > 100 µM
[38]
  TGI: 20.6 µM
[39]
  TGI: 28.5 µM
[40]
  TGI: 45.3 µM
[41]
  TGI: 39.7 µM
[42]
  TGI: 26.3 µM
[43]
  TGI: 53.7 µM
[44]
  TGI: 40.4 µM
[45]
  TGI: > 100 µM
[46]
  TGI: 19.1 µM
[47]
  TGI: 38.4 µM
[48]
  TGI: 11.8 µM
[49]
  TGI: 68.7 µM
[50]
  TGI: > 100 µM
[51]
  TGI: > 100 µM
[52]
  TGI: 35.8 µM
[53]
  TGI: 37.2 µM
[54]
  TGI: 19.6 µM

## CCOC(=O)C1(C#N)C(c2ccccc2)CC(O)(c2ccc([N+](=O)[O-])cc2)C(C(=O)c2ccc([N+](=O)[O-])cc2)C1c1ccccc1 (stereo unspecified)
[1]
  TGI: > 100 µM
[2]
  TGI: > 100 µM
[3]
  TGI: > 100 µM
[4]
  TGI: > 100 µM
[5]
  TGI: > 100 µM
[6]
  TGI: > 100 µM
[8]
  TGI: > 100 µM
[9]
  TGI: > 100 µM
[10]
  TGI: > 100 µM
[11]
  TGI: > 100 µM
[12]
  TGI: > 100 µM
[13]
  TGI: > 100 µM
[14]
  TGI: > 100 µM
[15]
  TGI: > 100 µM
[16]
  TGI: > 100 µM
[17]
  TGI: > 100 µM
[18]
  TGI: 42.6 µM
[19]
  TGI: > 100 µM
[20]
  TGI: > 100 µM
[21]
  TGI: > 100 µM
[55]
  TGI: > 100 µM
[22]
  TGI: > 100 µM
[23]
  TGI: > 100 µM
[24]
  TGI: > 100 µM
[26]
  TGI: > 100 µM
[27]
  TGI: > 100 µM
[28]
  TGI: > 100 µM
[29]
  TGI: > 100 µM
[30]
  TGI: > 100 µM
[31]
  TGI: > 100 µM
[33]
  TGI: > 100 µM
[34]
  TGI: > 100 µM
[35]
  TGI: > 100 µM
[36]
  TGI: > 100 µM
[56]
  TGI: > 100 µM
[37]
  TGI: > 100 µM
[38]
  TGI: > 100 µM
[39]
  TGI: > 100 µM
[57]
  TGI: > 100 µM
[40]
  TGI: > 100 µM
[41]
  TGI: 96.5 µM
[42]
  TGI: > 100 µM
[43]
  TGI: > 100 µM
[44]
  TGI: > 100 µM
[45]
  TGI: > 100 µM
[46]
  TGI: > 100 µM
[47]
  TGI: > 100 µM
[48]
  TGI: > 100 µM
[49]
  TGI: > 100 µM
[50]
  TGI: > 100 µM
[51]
  TGI: > 100 µM
[52]
  TGI: > 100 µM
[53]
  TGI: > 100 µM
[54]
  TGI: > 100 µM

## CCOC(=O)C[C@@H](C)[C@]1(C(=O)OC)CCCC1=O
[1]
  TGI: > 100 µM
[2]
  TGI: > 100 µM
[3]
  TGI: > 100 µM
[4]
  TGI: > 100 µM
[5]
  TGI: > 100 µM
[6]
  TGI: > 100 µM
[7]
  TGI: > 100 µM
[8]
  TGI: > 84.2 µM
[9]
  TGI: > 100 µM
[10]
  TGI: > 100 µM
[11]
  TGI: > 100 µM
[12]
  TGI: > 100 µM
[13]
  TGI: > 100 µM
[14]
  TGI: > 100 µM
[15]
  TGI: > 100 µM
[16]
  TGI: > 100 µM
[17]
  TGI: > 58.9 µM
[18]
  TGI: > 100 µM
[19]
  TGI: > 100 µM
[20]
  TGI: > 100 µM
[21]
  TGI: > 100 µM
[55]
  TGI: > 100 µM
[22]
  TGI: > 62.6 µM
[23]
  TGI: > 100 µM
[24]
  TGI: > 100 µM
[25]
  TGI: > 100 µM
[26]
  TGI: > 100 µM
[27]
  TGI: > 100 µM
[28]
  TGI: > 100 µM
[29]
  TGI: > 100 µM
[30]
  TGI: > 61.5 µM
[31]
  TGI: > 100 µM
[32]
  TGI: > 100 µM
[33]
  TGI: > 71.4 µM
[34]
  TGI: > 71.3 µM
[35]
  TGI: > 100 µM
[36]
  TGI: > 100 µM
[56]
  TGI: 65.6 µM
[37]
  TGI: > 100 µM
[58]
  TGI: > 100 µM
[38]
  TGI: > 100 µM
[39]
  TGI: > 100 µM
[57]
  TGI: > 100 µM
[40]
  TGI: > 100 µM
[41]
  TGI: > 100 µM
[42]
  TGI: > 100 µM
[43]
  TGI: > 100 µM
[44]
  TGI: > 100 µM
[45]
  TGI: > 100 µM
[46]
  TGI: > 100 µM
[47]
  TGI: > 100 µM
[48]
  TGI: > 100 µM
[49]
  TGI: > 100 µM
[50]
  TGI: > 100 µM
[51]
  TGI: > 100 µM
[52]
  TGI: > 100 µM
[53]
  TGI: > 100 µM
[54]
  TGI: > 100 µM

## C=CCCCn1ccc2ccccc21
[1]
  TGI: > 100 µM
[2]
  TGI: > 100 µM
[3]
  TGI: > 100 µM
[4]
  TGI: > 100 µM
[5]
  TGI: > 100 µM
[6]
  TGI: > 100 µM
[7]
  TGI: > 100 µM
[8]
  TGI: > 100 µM
[9]
  TGI: > 100 µM
[10]
  TGI: > 100 µM
[11]
  TGI: > 100 µM
[13]
  TGI: > 100 µM
[14]
  TGI: > 100 µM
[15]
  TGI: > 100 µM
[17]
  TGI: > 100 µM
[18]
  TGI: > 100 µM
[19]
  TGI: > 100 µM
[20]
  TGI: > 100 µM
[21]
  TGI: > 100 µM
[55]
  TGI: > 100 µM
[22]
  TGI: > 100 µM
[23]
  TGI: > 100 µM
[24]
  TGI: > 100 µM
[25]
  TGI: > 100 µM
[26]
  TGI: > 100 µM
[27]
  TGI: > 100 µM
[28]
  TGI: > 100 µM
[29]
  TGI: > 100 µM
[30]
  TGI: > 100 µM
[31]
  TGI: > 100 µM
[32]
  TGI: > 100 µM
[33]
  TGI: > 100 µM
[34]
  TGI: > 100 µM
[35]
  TGI: > 100 µM
[36]
  TGI: > 100 µM
[56]
  TGI: > 100 µM
[37]
  TGI: > 100 µM
[58]
  TGI: > 100 µM
[38]
  TGI: > 100 µM
[57]
  TGI: > 100 µM
[40]
  TGI: > 100 µM
[41]
  TGI: > 100 µM
[42]
  TGI: > 100 µM
[43]
  TGI: > 100 µM
[44]
  TGI: > 100 µM
[59]
  TGI: > 100 µM
[46]
  TGI: > 100 µM
[47]
  TGI: > 100 µM
[48]
  TGI: > 100 µM
[49]
  TGI: > 100 µM
[50]
  TGI: > 100 µM
[51]
  TGI: > 100 µM
[52]
  TGI: > 100 µM
[53]
  TGI: > 100 µM
[54]
  TGI: > 100 µM
